Data: patent EP4197333A1, “METHOD FOR C[…] RESISTANT PESTS & COMPOUNDS THEREFOR” (Syngenta Crop Protection AG, priority 2021, dated 2023)
Converted amounts (≈) assume the structure as drawn.

Tested on: sensitive Plutella strain
Assay: Control of sensitive Plutella strain
Assay type: in vivo
Conditions: 80% control, on average, read-out: concentration controlling the sensitive Plutella strain at 80%

CNC(=O)c1cc(Cl)cc(C)c1NC(=O)c1cc(Br)nn1-c1ncccc1Cl [chlorantraniliprole]
EC80: 0.25 µg/mL (≈ 0.517 µM)
